The results in this text go back to patent US7189840B2, “Oncosuppressive gene” (Novuspharma S.p.A., priority 2001, dated 2007).

This assay has as its system A2780 cells. Put plainly: Expression of the isolated cDNA fragment (differential display, RT-PCR) in A2780 cells treated with cytotoxic agents. The note with it: for expression of the cDNA fragment: A2780 cells after treatment with the compound. Format: cell-based, human. The procedure: Human ovary carcinoma A2780 cells were treated for 1 hour with an antitumor derivative of distamycin-A at its 50% growth-inhibiting concentration; at the end of the treatment and after 6 and 24 hours the total RNA was isolated by column extraction (SVTotal RNA, Promega Italia) and reverse-transcribed using poly-T primers as indicated in the differential-display kit (GenHunter). The fragments thus obtained were separated on denaturing polyacrylamide gel and detected by autoradiography. The bands whose intensity differed from controls were isolated and purified. One of them (fragment 1), after purification and ^32P-labeling (rediprime kit, Amersham), was used as probe in Northern Blot experiments. The RNA from the same cells was separated on agarose gel, transferred onto nylon membrane and hybridized with the probe.
Cells A2780 were treated with taxol and cisplatin (DDP) and the RNA was extracted before and 24 hours after the treatment. […] A fragment of beta-actin gene was used as internal control.

`N.N.[Cl][Pt][Cl]` [cisplatin]: the “expression of the cDNA fragment” value is “increased production of the same fragment”. Besides, the “specific mRNA band by RT-PCR versus control cells” value (A2780 cells, RNA 24 hours after treatment, beta-actin internal control) is given as “more intense than that of control cells”.

On to `COc1cccc2c1C(=O)c1c(O)c3c(c(O)c1C2=O)C[C@@](O)(C(=O)CO)C[C@@H]3O[C@H]1C[C@H](N)[C@H](O)[C@H](C)O1` [doxorubicin], for which the “expression of the cDNA fragment” value is “increased production of the same fragment”.

For the compound `O=c1[nH]cc(F)c(=O)[nH]1` [fluorouracil], the “expression of the cDNA fragment” value is “increased production of the same fragment”.

For `CC(=O)O[C@H]1C(=O)[C@@]2(C)[C@H]([C@H](OC(=O)c3ccccc3)[C@]3(O)C[C@H](OC(=O)[C@H](O)[C@@H](NC(=O)c4ccccc4)c4ccccc4)C(C)=C1C3(C)C)[C@]1(OC(C)=O)CO[C@@H]1C[C@@H]2O` [taxol], the “expression of the cDNA fragment” value is “increased production of the same fragment”.
